Measured values taken from patent US10669250B2, “Hypervalent iodine CF2CF2X reagents and their use” (ETH Zurich, priority 2014, dated 2020).
Where a name gives a salt, the structure may show the parent alone. Blank lines part the entries; values can stand above or below the compound they belong to.

Experiment: Storage stability of reagent 7 and its Boc and salt forms
Format: physicochemical
Text: The synthesis of reagent 7-salt is described in Scheme 1. The phenolic oxygen of Boc-protected NMT (N-methyltyramine) was deprotonated with NaH and treated with BrCF2CF2Br (Halon 2402) giving the bromide 4, which was converted to corresponding fluoroalkylsilane 5. […] For that reason, it was generated in situ from 7-salt by addition of base in all subsequent syntheses.

storage stability (crystalline, at room temperature): appeared stable
Compound: CNCCc1ccc(OC(F)(F)C(F)(F)I2OC(C)(C)c3ccccc32)cc1 [Reagent 7-salt, 3,3-Dimethyl-1-(1,1,2,2-tetrafluoro-2-(4-(2-(methylammonio)ethyl)phenoxy)ethyl)-2,3-dihydro-1H-1λ^3-benzo[d][1,2]iodaoxol-2-ium bis(trifluoroacetate)]

storage stability (brown oil, at −20° C.): stable for at least for six months
Compound: CN(CCc1ccc(OC(F)(F)C(F)(F)I2OC(C)(C)c3ccccc32)cc1)C(=O)OC(C)(C)C [Reagent 7-Boc, tert-Butyl (4-(2-(3,3-dimethyl-1λ^3-benzo[d][1,2]iodaoxol-1 (3H)-yl)-1,1,2,2-tetrafluoroethoxy)phenethyl)-(methyl)carbamate]

storage stability (isolated deprotected reagent, stored in a freezer): decomposed rapidly
Compound: CNCCc1ccc(OC(F)(F)C(F)(F)I2OC(C)(C)c3ccccc32)cc1 [Reagent 7, 2-(4-(2-(3,3-Dimethyl-1λ^3-benzo[d][1,2]iodaoxol-1 (3H)-yl)-1,1,2,2-tetrafluoroethoxy)phenyl)-N-methylethan-1-amine]
